Assay [1] has as its target T1, FXR-LBD (Homo sapiens, UniProt Q96RI1).
T1 construct: Add 5 μl of 4×FXR-LBD to 384 well assay plates; purchased
T1 sequence (Q96RI1 262-486 limits assumed): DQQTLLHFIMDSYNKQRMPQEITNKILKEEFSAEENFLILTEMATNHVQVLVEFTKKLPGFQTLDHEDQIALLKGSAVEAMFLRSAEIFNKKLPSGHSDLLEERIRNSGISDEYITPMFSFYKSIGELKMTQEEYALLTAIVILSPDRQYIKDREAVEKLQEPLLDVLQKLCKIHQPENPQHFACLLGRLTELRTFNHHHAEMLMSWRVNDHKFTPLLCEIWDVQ
In words: FXR Coactivator Assay (LanthaScreen TR-FRET). It counts as biochemical. As for the experimental part: (§1) • 1. Hek293T cells were plated at 1.1*10^6/ml into a 100 mm dish. • 2. […] Cells were incubated at 37° C. under 5% CO2 atmosphere. • 3. All of compounds were 3-fold serial diluted from 10 mM stock for 10 doses in DMSO. • 4. Transfer compound dilutions into 384 well assay plates using liquid workstation. • 5. Seed 25 ul HEK293T cells into 384 well assay plate (prepared step 4) at 0.6*10^5/ml. Cells were incubated at 37° C. under 5% CO2 atmosphere overnight. • 6. Add 25 ul steady-Glo™ Luciferase Assay Reagent into each well of 384-well assay plate. • 7. […] Calculate EC50 by fitting % Activity values and log of compound concentrations to nonlinear regression (dose response−variable slope) with Graphpad 5.0. FXR Coactivator Assay Reagents: LanthaScreen™ TR-FRET Farnesoid X Receptor Coactivator Assay GW4064 as a positive control Process: • 1. All of compounds were 3-fold serial diluted from 10 mM stock for 10 doses in DMSO. • 2. Dilute each 100× agonist serial dilution to 2× using Complete Coregulator buffer G. • 3. Transfer 10 μl of each of the 2× agonist serial dilutions to 384 well assay plates. • 4. Add 5 μl of 4×FXR-LBD to 384 well assay plates. • 5. […] Incubate at room temperature protected from light. • 7. […] Calculate EC50 by fitting % Activity values and log of compound concentrations to nonlinear regression (dose response−variable slope) with Graphpad 5.0.
Background: In TR-FRET formats the signal depends on donor and acceptor labels being close together.

Assay [2] concerns the target T2, FXR (Homo sapiens, UniProt Q96RI1).
T2 construct: expressed in transfected cells; host or cells: HEK293T
T2 sequence (Q96RI1 1-486): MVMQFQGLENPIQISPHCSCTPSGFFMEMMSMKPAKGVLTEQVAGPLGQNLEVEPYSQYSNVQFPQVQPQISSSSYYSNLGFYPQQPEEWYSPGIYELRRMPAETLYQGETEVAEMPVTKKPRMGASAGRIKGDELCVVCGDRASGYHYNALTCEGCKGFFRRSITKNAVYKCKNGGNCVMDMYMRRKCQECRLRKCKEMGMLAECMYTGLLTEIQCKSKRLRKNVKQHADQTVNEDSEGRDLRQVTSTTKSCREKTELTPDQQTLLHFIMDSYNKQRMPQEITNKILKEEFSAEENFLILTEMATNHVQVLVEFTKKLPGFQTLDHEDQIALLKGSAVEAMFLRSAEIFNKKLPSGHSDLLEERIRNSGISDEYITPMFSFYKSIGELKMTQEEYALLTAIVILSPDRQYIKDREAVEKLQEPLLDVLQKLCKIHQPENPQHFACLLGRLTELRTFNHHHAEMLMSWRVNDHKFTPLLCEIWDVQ
The assay is described as follows: FXR Transactivation Assay (GAL4 luciferase reporter, pBIND-FXR in HEK293T). It is filed as cell-based. Conditions: HEK293T cells. As for the experimental part: FXR Transactivation Assay
pGL4.35 [luc2P/9XGAL4 UAS/Hygro]
Steady-Glo™ Luciferase Assay System
GW4064 as a positive control
as §1
(Reporter assays use an easily measured gene product as a stand-in for the process of interest.)

One may read the EC50 as the midpoint of the concentration-response curve. A high value points to a less potent agent. Consider `COc1cc(C(=O)O)cc2sc(N3CCN(Cc4c(C(C)C)cnn4-c4c(Cl)cccc4Cl)CC3)nc12` [II-03, 2-(4-[[1-(2,6-Dichlorophenyl)-4-(propan-2-yl)-1H-pyrazol-5-yl]methyl]piperazin-1-yl)-4-methoxy-1,3-benzothiazole-6-carboxylic acid], for which the 50% effective concentration (EC50) in assay [1] was 10 to 100 nM; in assay [2] it was 101 to 400 nM.

Regarding `COc1cc(C(=O)O)cc2sc(N3CCN(Cc4c(-c5c(Cl)cccc5Cl)noc4C4CC4)CC3C)nc12` (stereo not shown) [II-11], the half-maximal effective concentration (EC50) in assay [1] was 10 to 100 nM; in assay [2], 101 to 400 nM.

On to `COc1cc(C(=O)O)cc2sc(N3CCN(Cc4c(-c5c(Cl)cccc5Cl)noc4C4CC4)CC3C)nc12` (stereo not shown) [II-13], for which the concentration giving a half-maximal response (EC50) in assay [1] and in assay [2] was 10 to 100 nM throughout.

For the compound `COc1cc(C(=O)O)cc2sc(N3CCN(Cc4c(-c5c(Cl)cccc5Cl)noc4C(C)C)CC3(C)C)nc12` [II-16], the concentration for a half-maximal effect (EC50) in assay [1] lay in the range of 10 to 100 nM; in assay [2] it was 101 to 400 nM.

As to `CCC1CN(Cc2c(-c3c(Cl)cccc3Cl)noc2C(C)C)CCN1c1nc2c(OC)cc(C(=O)O)cc2s1` (stereo not shown) [II-18], the concentration giving a half-maximal response (EC50) in assay [1] and in assay [2] was 10 to 100 nM in each case.

`CCC1CN(c2nc3c(OC)cc(C(=O)O)cc3s2)CCN1Cc1c(-c2c(Cl)cccc2Cl)noc1C(C)C` (stereo not shown) [II-20]: the concentration for a half-maximal effect (EC50) in assay [1] lay in the range of 10 to 100 nM; in assay [2] it was 101 to 400 nM.

Consider `COc1cc(C(=O)O)cc2sc(N3CCN(Cc4c(-c5c(Cl)cccc5Cl)noc4C(C)C)C(C)(C)C3)nc12` [II-22, 2-(4-[[3-(2,6-Dichlorophenyl)-5-(propan-2-yl)-1,2-oxazol-4-yl]methyl]-3,3-dimethylpiperazin-1-yl)-4-methoxy-1,3-benzothiazole-6-carboxylic acid], for which the EC50 was in the range of 10 to 100 nM in assay [1] and 101 to 400 nM in assay [2].

With `COc1cc(C(=O)O)cc2sc(N3CCN(Cc4c(-c5c(Cl)cccc5Cl)noc4C(C)C)C(C)C3)nc12` (stereo not shown) [II-24], the concentration giving a half-maximal response (EC50) in assay [1] and in assay [2] was 10 to 100 nM each time.

For the compound `COc1cc(C(=O)O)cc2sc(N3CCN(Cc4c(-c5c(Cl)cccc5Cl)noc4C(C)C)C4(CC4)C3)nc12` [II-30], the EC50 in assay [1] was 10 to 100 nM; in assay [2], 101 to 400 nM.

Regarding `COc1cc(C(=O)O)cc2sc(N3CCCN(Cc4c(-c5c(Cl)cccc5Cl)noc4C(C)C)CC3)nc12` [II-40], the concentration for a half-maximal effect (EC50) lay within 10 to 100 nM in assay [1] and 101 to 400 nM in assay [2].

As to `COc1cc(C(=O)O)cc2sc(N3CCC(Cc4c(-c5c(Cl)cccc5Cl)noc4C(C)C)CC3)nc12` [II-43], the EC50 lay within 10 to 100 nM in assay [1] and 101 to 400 nM in assay [2].

For the compound `COc1cc(C(=O)O)cc2sc(N3CC=C(Cc4c(-c5c(Cl)cccc5Cl)noc4C4CC4)C[C@H]3C)nc12` [II-46, 2-[(2R)-4-[[5-Cyclopropyl-3-(2,6-dichlorophenyl)-1,2-oxazol-4-yl]methyl]-2-methyl-1,2,3,6-tetrahydropyridin-1-yl]-4-methoxy-1,3-benzothiazole-6-carboxylic acid], the half-maximal effective concentration (EC50) in assay [1] was in the range of 10 to 100 nM.

Turning to `COc1cc(C(=O)O)cc2sc(C3CCN(Cc4c(-c5c(Cl)cccc5Cl)noc4C(C)C)CC3)nc12` [II-47, 2-(1-((3-(2,6-Dichlorophenyl)-5-isopropylisoxazol-4-yl)methyl)piperidin-4-yl)-4-methoxybenzo[d]thiazole-6-carboxylic acid], the EC50 in assay [1] lay within 101 to 400 nM.

`CC(C)c1cc(C(=O)O)cc2sc(N3CCN(Cc4c(-c5c(Cl)cccc5Cl)noc4C4CC4)C[C@H]3C)nc12` [VII-01, (R)-2-(4-((5-Cyclopropyl-3-(2,6-dichlorophenyl)isoxazol-4-yl)methyl)-2-methylpiperazin-1-yl)-4-isopropylbenzo[d]thiazole-6-carboxylic acid]: the concentration for a half-maximal effect (EC50) in assay [1] and in assay [2] was 10 to 100 nM throughout.

In assay [2], `C[C@@H]1CN(Cc2c(-c3c(Cl)cccc3Cl)noc2C2CC2)CCN1c1nc2c(OC(F)(F)F)cc(C(=O)O)cc2s1` [VII-04, 2-[(2R)-4-[[5-Cyclopropyl-3-(2,6-dichlorophenyl)-1,2-oxazol-4-yl]methyl]-2-methylpiperazin-1-yl]-4-(trifluoromethoxy)-1,3-benzothiazole-6-carboxylic acid] had a half-maximal effective concentration (EC50) of 10 to 100 nM.

With `COc1cc(C(N)=O)cc2sc(N3CCN(Cc4c(-c5c(Cl)cccc5Cl)noc4C(C)C)CC3)nc12` [VIII-01], the 50% effective concentration (EC50) in assay [1] was 10 to 100 nM; in assay [2], 101 to 400 nM.

As for `COc1cc(C(N)=O)cc2sc(N3CCN(Cc4c(-c5c(Cl)cncc5Cl)noc4C4CC4)C[C@H]3C)nc12` [VIII-03, 2-[(2R)-4-[[5-Cyclopropyl-3-(3,5-dichloropyridin-4-yl)-1,2-oxazol-4-yl]methyl]-2-methylpiperazin-1-yl]-4-methoxy-1,3-benzothiazole-6-carboxamide], the EC50 in assay [2] fell in the range of 101 to 400 nM.

With `COc1cc(C(N)=O)cc2nc(N3CCN(Cc4c(-c5c(Cl)cccc5Cl)noc4C4CC4)C[C@@H]3C)sc12` [VIII-04, (S)-2-(4-((5-Cyclopropyl-3-(2,6-dichlorophenyl)isoxazol-4-yl)methyl)-2-methylpiperazin-1-yl)-7-methoxybenzo[d]thiazole-5-carboxamide], the EC50 in assay [2] was in the range of 401 to 5000 nM.

These data come from patent publication US10919903B2, “Nitrogen-containing heterocyclic compounds as FXR modulators” (Hepagene Therapeutics (HK) Limited, priority 2016, dated 2021).
